In patent publication US11739124B2, “Acetyl-CoA carbosylase2 antisense oligonucleotides” (OLIPASS CORPORATION, priority 2018, dated 2023):

Tests used:
[1] = test system: 10-mer complementary DNA; assay: Binding affinity for complementary DNA by Tm (UV/Vis); settings: aqueous buffer pH 7.16, 10 mM sodium phosphate, 100 mM NaCl; for Tm Value, 10-mer DNA against C-Terminal: duplex of PNA and 10-mer complementary DNA targeting the C-terminal of PNA; for Tm Value, 10-mer DNA against N-Terminal: duplex of PNA and 10-mer complementary DNA targeting the N-terminal of PNA
Description: The PNA derivatives of Formula I were evaluated for their binding affinity for 10-mer DNAs complementarily targeting either the N-terminal or C-terminal. The binding affinity was assessed by Tm value for the duplex between PNA and 10-mer complementary DNA. The duplex between PNA derivatives and fully complementary DNAs show Tm values too high to be reliably determined in aqueous buffer solution, since the buffer solution tends to boil during the Tm measurement. Tm values for full length PNAs can be predicted and compared based on the Tm value for the duplex between PNA and 10-mer complementary DNA.
Tm values were determined on a UV/Vis spectrometer as follows. A mixed solution of […] PNA oligomer and 4 μM complementary 10-mer DNA in 4 mL aqueous buffer (pH 7.16, 10 mM sodium phosphate, 100 mM NaCl) in 15 mL polypropylene falcon tube was incubated at 90° C. for a few minute and slowly cooled down to ambient temperature. Then the solution was transferred into a 3 mL quartz UV cuvette equipped with an air-tight cap, and the cuvette was mounted on an Agilent 8453 UV/Visible spectrophotometer. The absorbance changes at 260 nm were recorded with increasing the temperature of the cuvette by either 0.5 or 1° C. per minute. From the absorbance vs temperature curve, the temperature showing the largest increase rate in absorbance was read out as the Tm between PNA and 10-mer DNA. The DNAs for Tm measurement were purchased from Bioneer (www.bioneer.com, Dajeon, Republic of Korea) and used without further purification.

[2] = test system: human ACC2 mRNA; assay: Inhibition of ACC2 mRNA formation in C2C12 (Real-Time qPCR); assay type: cell-based, mouse; settings: C2C12 cells, 24 hours; for reduction of ACC2 mRNA compared to control: standardized by GAPDH; for amount of ACC2 mRNA: 100 zM to 1 fM, concentration-dependently
Description: “ASO 1” was evaluated by Real-Time qPCR for its ability to down-regulate the ACC2 mRNA formation in C2C12 as described below.
[Cell Culture & ASO Treatment] C2C12 cells (Cat. No. CRL-1772, ATCC) were maintained in Dulbecco Modified Eagle Medium (DMEM, Cat. No. 12-604F, Lonza) supplemented with 10% Fetal Bovine Serum (Cat. No. 10099-41, GIBCO) and 1% streptomycin/penicillin (Cat. No. 15140-122, GIBCO), which was grown at 37° C. and under 5% CO2 condition. C2C12 cells (2×10^5) stabilized for 24 hours in 60 mm culture dish were incubated for 24 hours with “ASO 1” at 0 (negative control) and 100 zM to 1 fM.
[RNA Extraction & cDNA Synthesis] Total RNA was extracted using RNeasy Mini kit (Qiagen, Cat. No. 714106) according to the manufacturer's instructions from “ASO 1” treated cells and cDNA was prepared from 400 ng of RNA by use of PrimeScript™ 1st strand cDNA Synthesis Kit (Takara, Cat. No. 6110A). To a mixture of 400 ng of RNA, 1 microliter of random hexamer, and 1 microliter of dNTP (10 mM) in PCR tube was added DEPC-treated water to a total volume of 10 microliter, which was reacted at 65° C. for 5 minutes. cDNA was synthesized by adding 10 microliter of PrimeScript RTase to the reaction mixture and reacting at 30° C. for 10 minutes and at 42° C. for 60 minutes, successively.
[Quantitative Real-Time PCR] In order to evaluate the expression level of […] ACC2 mRNA real-time qPCR was performed with synthesized cDNA by use of Tagman probe. The mixture of cDNA, Taqman probe (Thermo, Mm01204651), IQ supermix (BioRad, Cat. No. 170-8862), and nuclease free water in PCR tube was under reaction by use of CFX96 Touch Real-Time system (BioRad) according to the cycle conditions specified as follows: at 95° C. for 3 min (primary denaturation) followed by 50 cycles of 10 sec at 95° C. (denaturation) and 30 sec at 60° C. (annealing and polymerization). Fluorescence intensity was measured at the end of every cycle and the result of PCR was evaluated by the melting curve. After the threshold cycle (Ct) of each gene was standardized by that of GAPDH, the change of Ct was compared and analyzed.
“ASO 6” was evaluated by Real-Time qPCR for its ability to down-regulate the ACC2 mRNA formation in C2C12 as described below.
[Cell Culture & ASO Treatment] C2C12 cells (Cat. No. CRL-1772, ATCC) were maintained in Dulbecco Modified Eagle Medium (DMEM, Cat. No. 12-604F, Lonza) supplemented with 10% Fetal Bovine Serum (Cat. No. 10099-41, GIBCO) and 1% streptomycin/penicillin (Cat. No. 15140-122, GIBCO), which was grown at 37° C. and under 5% CO2 condition. C2C12 cells (2×10^5) stabilized for 24 hours in 60 mm culture dish were incubated for 24 hours with “ASO 6” at 0 (negative control) and 100 zM to 1 fM.
[RNA Extraction & cDNA Synthesis] Total RNA was extracted using RNeasy Mini kit (Qiagen, Cat. No. 714106) according to the manufacturer's instructions from “ASO 6” treated cells and cDNA was prepared from 400 ng of RNA by use of PrimeScript™ 1st strand cDNA Synthesis Kit (Takara, Cat. No. 6110A). To a mixture of 400 ng of RNA, 1 microliter of random hexamer, and 1 microliter of dNTP (10 mM) in PCR tube was added DEPC-treated water to a total volume of 10 microliter, which was reacted at 65° C. for 5 minutes. cDNA was synthesized by adding 10 microliter of PrimeScript RTase to the reaction mixture and reacting at 30° C. for 10 minutes and at 42° C. for 60 minutes, successively.
“ASO 5” was evaluated by the same method as described below.
[Cell Culture & ASO Treatment] C2C12 cells (Cat. No. CRL-1772, ATCC) were maintained in Dulbecco Modified Eagle Medium (DMEM, Cat. No. 12-604F, Lonza) supplemented with 10% Fetal Bovine Serum (Cat. No. 10099-41, GIBCO) and 1% streptomycin/penicillin (Cat. No. 15140-122, GIBCO), which was grown at 37° C. and under 5% CO2 condition. C2C12 cells (2×10^5) stabilized for 24 hours in 60 mm culture dish were incubated for 24 hours with “ASO 5” at 0 (negative control) and 100 zM to 1 fM.
[RNA Extraction & cDNA Synthesis] […]

[3] = test system: ACC2 exon 12; assay: Exon skipping of ACC2 mRNA in C2C12 (nested RT-PCR, electrophoresis, Sanger sequencing); assay type: cell-based; settings: C2C12 cells, 5 hours, 0.1 aM to 1 fM
Description: “ASO 1” was evaluated for its ability to induce the skipping of ACC2 “exon 12” in C2C12 cells as described below.
[Cell Culture & ASO Treatment] C2C12 cells (2×10^5) (Cat. No. CRL-1772, ATCC) were grown in 60 mm culture dish containing DMEM medium (Dulbecco Modified Eagle Medium: DMEM) (Cat. No. 12-604F, Lonza) supplemented with 10% FBS (Fetal Bovine Serum) (Cat. No. 10099-41, GIBCO) and 1% streptomycin/penicillin (Cat. No. 15140-122, GIBCO) under 5% CO2 atmosphere at 37° C. The cells were treated either with nothing (negative control) or with an aliquot of aqueous stock solution of “ASO 1” for 5 hours at 100 zM to 1 fM.
[RNA Extraction & Nested PCR] Total RNA was extracted using RNeasy Mini kit (Qiagen, Cat. No. 714106) according to the manufacturer's instructions from “ASO 1” treated cells and cDNA was prepared from 200 ng of RNA by use of SuperScript™ III One-Step RT-PCR System (Cat. No. 12574-018, Invitrogen). […]
[Identification of Exon Skipping Products Electrophoresis] […] The target bands from “ASO 1” treatment were collected and analyzed by Sanger Sequencing to evaluate exon skipping sequence.

For “(N→C) Fethoc-AC(1O2)T-GA(5)C-GA(5)A-A(5)TG(5)-GC(1O2)-NH2 [ASO 4]”, the “Tm Value, 10-mer DNA against C-Terminal” value [1] was 82.01 °C and the “Tm Value, 10-mer DNA against N-Terminal” value [1] was 80.01 °C.
“(N→C) Fethoc-CTG(6)-AC(1O2)G-A(5)AA(5)-TG(6)G-C(1O2)C—NH2 [ASO 6]” was tested, and the “reduction of ACC2 mRNA compared to control” value (“reduction of ACC2 mRNA” below) ([2]; 1 aM) was 30%, the “reduction of ACC2 mRNA” value ([2]; 1 fM) was 50% and the “amount of ACC2 mRNA” value [2] was “reduced”.
“(N→C) Fethoc-CTG(6)-ACG(6)-AA(5)A-TG(6)G-C(1O2)C—NH2 (CTNACNANATNGNC; PNA with modified bases, Fethoc N-cap, C-amide; PNA modified oligonucleotide; (1)..(14) PNA modified oligonucleotide, human acetyl-CoA carboxylase2 targeted artificial sequence; (1)..(1) Carbamated N-terminal; modified_base (3)..(3) n is a, g, c, or t; modified_base (6)..(6) n is a, g, c, or t; modified_base (8)..(8) n is a, g, c, or t; modified_base (11)..(11) n is a, g, c, or t; modified_base (13)..(13) n is a, g, c, or t) [ASO 1, peptide nucleic acid derivative targeting the 5′ splice site of exon 12 in the human ACC2 pre-mRNA]” was tested, and the “Tm Value, 10-mer DNA against C-Terminal” value [1] was 79.60 °C, the “Tm Value, 10-mer DNA against N-Terminal” value [1] was 72.80 °C and the “Exon skipping (splice variant ACC2 mRNA)” value [3] was “concentration-dependently yielded the splice variant ACC2 mRNA lacking exon 11”. For the same substance, the “reduction of ACC2 mRNA” value ([2]; 1 fM) was 30% and the “amount of ACC2 mRNA” value [2] was “reduced”.
With “(N→C) Fethoc-TA(5)C(1O2)-TGA(5)-CGA(5)-AA(5)T-G(6)GC(1O2)-C—NH2 [ASO 2]” the “Tm Value, 10-mer DNA against C-Terminal” value [1] was 82.01 °C and the “Tm Value, 10-mer DNA against N-Terminal” value [1] was 82.99 °C.
With “(N→C) Fethoc-CTG(6)-AC(1O2)G-A(5)AA(5)-TG(6)G-NH2 [ASO 5]” the “reduction of ACC2 mRNA” value ([2]; 1 aM) was 30%, the “reduction of ACC2 mRNA” value ([2]; 1 fM) was 42% and the “amount of ACC2 mRNA” value [2] was “reduced”.
“(N→C) Fethoc-TA(5)C-TG(5)A-C(1O2)GA(5)-AA(5)T-G(5)G-NH2 [ASO 3]” was tested, and the “Tm Value, 10-mer DNA against C-Terminal” value [1] was 78.99 °C and the “Tm Value, 10-mer DNA against N-Terminal” value [1] was 76.03 °C.
